Each compound was assayed against T1, human IDO1 (Homo sapiens, UniProt P14902) (assay: IDO inhibition assay in human IDO1/HEK293 cells (IDO1 HEK Human)). Conditions: HEK293 cells stably expressing human IDO1; 20 hours incubation; absorbance at 490 nm after Ehrlich reagent.
T1 construct: expressed in transfected cells
Assay type: cell-based
Protocol: HEK293 cells were transfected with a pCDNA-based mammalian expression vector harboring human IDO1 cDNA (NM 002164.2) by electroporation. They were cultured in medium (DMEM with 10% FBS) containing 1 mg/ml G418 for two weeks. Clones of HEK293 cells that stably expressed human IDO1 protein were selected and expanded for IDO inhibition assay.
The human IDO1/HEK293 cells were seeded at 10,000 cells per 50 μL per well with RPMI/phenol red free media contains 10% FBS in a 384-well black wall clear bottom tissue culture plate (Matrix Technologies LLC) 100 nL of certain concentration of compound was then added to each well using ECHO liquid handling systems. The cells were incubated for 20 hours in 37° C. incubator with 5% CO2.
The compound treatments were stopped by adding trichloroacetic acid (Sigma-Aldrich) to a final concentration at 0.2%. The cell plate was further incubated at 50° C. for 30 minute. The equal volume supernatant (20 μL) and 0.2% (w/v) Ehrlich reagent (4-dimethylaminobenzaldehyde, Sigma-Aldrich) in glacial acetic acid were mixed in a new clear bottom 384-well plate. This plate was then incubated at RT for 30 minute. The absorbance at 490 nm was measured on Envision plate reader.
Compound IC50 values were calculated using the counts of 500 nM of a reference standard treatment as one hundred percent inhibition, and counts of no compound but DMSO treatment as zero percent inhibition.

T1 sequence (P14902 whole entry): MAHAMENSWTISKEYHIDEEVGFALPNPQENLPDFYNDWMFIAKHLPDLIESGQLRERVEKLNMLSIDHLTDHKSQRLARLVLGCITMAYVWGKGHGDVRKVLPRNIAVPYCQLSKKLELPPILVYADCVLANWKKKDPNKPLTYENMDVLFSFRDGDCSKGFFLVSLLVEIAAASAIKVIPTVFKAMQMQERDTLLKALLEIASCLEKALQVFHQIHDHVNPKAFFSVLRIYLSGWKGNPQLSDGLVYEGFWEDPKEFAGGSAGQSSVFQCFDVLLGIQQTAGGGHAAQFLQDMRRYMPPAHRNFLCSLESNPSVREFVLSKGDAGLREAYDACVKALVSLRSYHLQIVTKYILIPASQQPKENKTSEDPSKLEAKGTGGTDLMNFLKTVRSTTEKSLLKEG

SMILES | IC50 [nM]
Cc1ccc(NC(=O)Nc2cc(-c3ccccc3-c3nnn[nH]3)cc3c2OCCC(C)C3C)cc1 (mixture of isomers) [Example 69, 1-(7-(2-(1H-tetrazol-5-yl)phenyl)-4,5-dimethyl-2,3,4,5-tetrahydrobenzo[b]oxepin-9-yl)-3-(p-tolyl)urea] | 14.6
Cc1ccc(NC(=O)Nc2cc(-c3ccccc3-c3nnn[nH]3)cc3c2OCC(O)C(O)C3c2ccccc2)cc1 (racemic) [9 (Rac.), 1-(7-(2-(1H-tetrazol-5-yl)phenyl)-3,4-dihydroxy-5-phenyl-2,3,4,5-tetrahydrobenzo[b]oxepin-9-yl)-3-(p-tolyl)urea] | 1040
Cc1ccc(CC(=O)Nc2cc(-c3ccccc3-c3nnn[nH]3)cc3c2OCCCC3C2CC2)cc1 (racemic) [37 (Rac), N-(7-(2-(1H-tetrazol-5-yl)phenyl)-5-cyclopropyl-2,3,4,5-tetrahydrobenzo[b]oxepin-9-yl)-2-(p-tolyl)acetamide] | 117
Cc1ccc(CC(=O)Nc2cc(-c3ccccc3-c3nnn[nH]3)cc3c2OCCCC3c2ccccc2)cc1 (racemic) [Example 2-1, N-(7-(2-(1H-tetrazol-5-yl)phenyl)-5-phenyl-2,3,4,5-tetrahydrobenzo[b]oxepin-9-yl)-2-(p-tolyl)acetamide] | 98.2
Cc1ccc(NC(=O)Nc2cc(-c3ccccc3-c3nnn[nH]3)cc3c2OCCCC3C(C)C)cc1 (racemic) [Example 24, 1-(7-(2-(1H-tetrazol-5-yl)phenyl)-5-isopropyl-2,3,4,5-tetrahydrobenzo[b]oxepin-9-yl)-3-(p-tolyl)urea] | 4.4
c1ccc(C2CCCOc3c(Nc4nc5ccccc5o4)cc(-c4ccccc4-c4nnn[nH]4)cc32)cc1 (racemic) [Example 53, N-(7-(2-(1H-tetrazol-5-yl)phenyl)-5-phenyl-2,3,4,5-tetrahydrobenzo[b]oxepin-9-yl) benzo[d] oxazol-2-amine] | 4.2
C=C[C@H]1Oc2c(NC(=O)Nc3ccc(C)cc3)cc(-c3ccccc3-c3nnn[nH]3)cc2[C@@H]1c1ccccc1 (racemic) [Example 85, (+/−)-1-((trans)-5-(2-(1H-tetrazol-5-yl)phenyl)-3-phenyl-2-vinyl-2,3-dihydrobenzofuran-7-yl)-3-(p-tolyl)urea] | 32
C=C[C@H]1Oc2c(NC(=O)Cc3ccc(C)cc3)cc(-c3ccccc3-c3nnn[nH]3)cc2[C@@H]1c1ccccc1 (racemic) [Example 91, (+/−)-N-((trans)-5-(2-(1H-tetrazol-5-yl)phenyl)-3-phenyl-2-vinyl-2,3-dihydrobenzofuran-7-yl)-2-(p-tolyl)acetamide] | 89
C=C(C)[C@H]1Oc2c(NC(=O)Nc3ccc(C)cc3)cc(-c3ccccc3-c3nnn[nH]3)cc2[C@@H]1c1ccccc1 (racemic) [Example 93, (+/−)-1-((trans)-5-(2-(1H-tetrazol-5-yl)phenyl)-3-phenyl-2-(prop-1-en-2-yl)-2,3-dihydrobenzofuran-7-yl)-3-(p-tolyl)urea] | 9.1
C=C[C@H]1Oc2c(NC(=O)Nc3ccc(C)cc3)cc(-c3ccccc3-c3nnn[nH]3)cc2[C@@H]1CCC(F)(F)F (racemic) [Example 94, (+/−)-1-((trans)-5-(2-(1H-tetrazol-5-yl)phenyl)-3-(3,3,3-trifluoropropyl)-2-vinyl-2,3-dihydrobenzofuran-7-yl)-3-(p-tolyl)urea] | 19
C=CC1Oc2c(NC(=O)Nc3ccccc3F)cc(-c3ccccc3-c3nnn[nH]3)cc2C1c1ccccc1 (racemic) [Example 95] | 88
C=C(C)C1Oc2c(NC(=O)Nc3ccc(C)cc3)cc(-c3ccc(OC)c(C(=O)O)c3)cc2C1c1ccccc1 (racemic) [Example 97] | 1800
C=CC1Oc2c(NC(=O)Nc3ccc(CC)cc3)cc(-c3ccccc3-c3nnn[nH]3)cc2C1CCC(F)(F)F (racemic) [Example 99] | 5.6
Cc1ccc(NC(=O)Nc2cc(C(C)CC(=O)O)cc3c2O[C@H](C2CC2)[C@H]3c2ccccc2)cc1 (mixture of isomers) [Example 111, rac-3-((2R,3S)-2-cyclopropyl-3-phenyl-7-(3-(p-tolyl)ureido)-2,3-dihydrobenzofuran-5-yl)butanoic acid] | 1400
C=CC1Oc2c(NC(=O)Nc3ccc(C)cc3)cc(C3(c4nnn[nH]4)CC3)cc2C1c1ccccc1 (racemic) [Example 112, (+/−)1-(5-(1-(1H-tetrazol-5-yl)cyclopropyl)-3-phenyl-2-vinyl-2,3-dihydrobenzofuran-7-yl)-3-(p-tolyl)urea] | 7900
Cc1ccc(NC(=O)Nc2cc(-c3ccccc3-c3nnn[nH]3)cc3c2OC(C)(C)C3c2ccccc2)cc1 (racemic) [Example 123, (±)-1-(5-(2-(1H-Tetrazol-5-yl)phenyl)-2,2-dimethyl-3-phenyl-2,3-dihydrobenzofuran-7-yl)-3-(p-tolyl)urea] | 6.3

The next lines start with the values.

IC50 [nM] | SMILES
29.9 | Cc1ccc(CC(=O)Nc2cc(-c3ccccc3-c3nnn[nH]3)cc3c2OCCCC3C(C)C)cc1 (racemic) [25 (Rac), N-(7-(2-(1H-tetrazol-5-yl)phenyl)-5-isopropyl-2,3,4,5-tetrahydrobenzo[b]oxepin-9-yl)-2-(p-tolyl)acetamide]
155 | Cc1cnc(Nc2cc(-c3ccccc3-c3nnn[nH]3)cc3c2OCCCC3c2ccccc2)nc1 (racemic) [55 (Rac), N-(7-(2-(1H-tetrazol-5-yl)phenyl)-5-phenyl-2,3,4,5-tetrahydrobenzo[b]oxepin-9-yl)-5-methylpyrimidin-2-amine]
27.2 | Cc1ccc(NC(=O)Nc2cc(-c3ccccc3C(=O)O)cc3c2OCCCC3c2ccccc2)cc1 (racemic) [Example 8-1, 2-(5-phenyl-9-(3-(p-tolyl)ureido)-2,3,4,5-tetrahydrobenzo[b]oxepin-7-yl)benzoic acid]
7.6 | Cc1ccc(NC(=O)Nc2cc(-c3ccccc3-c3nnn[nH]3)cc3c2OCCCC3C2CC2)cc1 (racemic) [Example 36, 1-(7-(2-(1H-tetrazol-5-yl)phenyl)-5-cyclopropyl-2,3,4,5-tetrahydrobenzo[b]oxepin-9-yl)-3-(p-tolyl)urea]
12 | C=C[C@@H]1Oc2c(NC(=O)Nc3ccc(C)cc3)cc(-c3ccccc3-c3nn[nH]n3)cc2[C@@H]1c1ccccc1 (racemic) [Example 86, (+/−)-1-((cis)-5-(2-(1H-tetrazol-5-yl)phenyl)-3-phenyl-2-vinyl-2,3-dihydrobenzofuran-7-yl)-3-(p-tolyl)urea]
18 | CC[C@@H]1Oc2c(NC(=O)Nc3ccc(C)cc3)cc(-c3ccccc3-c3nnn[nH]3)cc2[C@H]1c1ccccc1 (racemic) [Example 90, (+/−)-1-((trans)-5-(2-(1H-tetrazol-5-yl)phenyl)-3-phenyl-2-ethyl-2,3-dihydrobenzofuran-7-yl)-3-(p-tolyl)urea]
26 | C=C(C)C1Oc2c(NC(=O)Nc3ccc(C)cc3)cc(-c3ccccc3C(=O)O)cc2C1c1ccccc1 (racemic) [Example 96]
87 | C=CC1Oc2c(NC(=O)Nc3ccc(C)cc3)cc(-c3cc(F)ccc3C(=O)O)cc2C1c1ccccc1 (racemic) [Example 98]
13 | CCC1Oc2c(NC(=O)Nc3ccc(C)cc3)cc(-c3ccccc3-c3nnn[nH]3)cc2C1CCC(F)(F)F (racemic) [Example 102]
11 | Cc1ccc(NC(=O)Nc2cc(-c3ccccc3-c3nnn[nH]3)cc3c2OC(C(C)C)C3c2ccccc2)cc1 (racemic) [Example 103]
